# According to patent US4451476A (priority 1983, dated 1984):
# Entries after “also recorded” stand apart in the source; their conditions may differ.
# Legend:
# poliovirus [1] = format: in vivo, mice; conditions: parenteral medication
# [2] = system: human rhinovirus serotypes; format: cell-based
# polio-2 virus = experiment: microbe, parasite or virus in culture; format: cell-based; conditions: read-out: MIC vs. polio-2 virus
# [3] = system: picornaviruses and enteroviruses; format: cell-based
# Polio-3 = experiment: microbe, parasite or virus in culture; format: cell-based; conditions: read-out: MIC vs. Polio-3
# Echo-11 = experiment: microbe, parasite or virus in culture; format: cell-based; conditions: read-out: MIC vs. Echo-11
# Echo-9 = experiment: In vitro MIC against Echo-9; format: cell-based
# poliovirus [4] = experiment: animal or person; format: in vivo, mice
# rhinovirus Type 2 = experiment: microbe, parasite or virus in culture; format: cell-based; conditions: for MIC: Enterovirus, read-out: MIC vs. rhinovirus Type 2 in vitro
Compound,MIC (rhinovirus Type 2) [µg/mL],other results
"COc1ccc(OCCCCCCCc2cc(C)no2)c(Cl)c1 [Example 2, 5-[7-(2-Chloro-4-methoxyphenoxy)heptyl]-3-methylisoxazole]",,"challenge doses of poliovirus at which death was prevented (poliovirus [1]; mice): ≤ 200 LD50; prevention of death in mice infected with poliovirus (poliovirus [1]; challenge doses as high as 200 LD50): prevented death; human rhinovirus serotypes against which active [2]: 24 of 27; most common human rhinovirus serotypes against which active [2]: six of the seven; MIC (polio-2 virus): 0.15 µg/mL; in vitro activity against picornaviruses and enteroviruses [3]: in vitro activity against a variety of picornaviruses and enteroviruses; also recorded: active against other picornaviruses and enterviruses; MIC (Polio-3): 0.08 µg/mL; MIC (Echo-11): 0.04 µg/mL; MIC (Echo-9): 0.15 µg/mL; minimal effective dose (poliovirus [4]; Enterovirus C, in Mus musculus, po, 336 h, read-out: minimal inhibitory dose): 31 mg/kg; in vivo activity against poliovirus infections in mice (poliovirus [4]): active in vivo; in vivo activity against poliovirus infections in mice (poliovirus [4]; listed as 5-[7-(2-chloro-4-methoxyphenoxy)heptyl]-3-methylisoxazole): in vivo activity against poliovirus infections in mice; times as active in vitro against rhinovirus Type 2 as the corresponding 2-chloro-4-methoxyphenoxy compounds of U.S. Pat. No. 4,268,678 (rhinovirus Type 2): at least 15 times"
"COc1ccc(OCCCCCCc2cc(C)no2)c(Cl)c1 [Example 3, 5-[6-(2-Chloro-4-methoxyphenoxy)hexyl]-3-methylisoxazole]",0.8,
"COc1ccc(OCCCCCc2cc(C)no2)c(Cl)c1 [Example 4, 5-[5-(2-Chloro-4-methoxyphenoxy)pentyl]-3-methylisoxazole]",0.4,
"Cc1cc(CCCCCCCOc2ccc(C#N)cc2)on1 [Example 5, 5-[7-(4-Cyanophenoxy)heptyl]-3-methylisoxazole]",,activity vs. rhinovirus Type 2 in vitro (rhinovirus Type 2): inactive
"Cc1cc(CCCCCCOc2ccc(C#N)cc2)on1 [Example 6, 5-[6-(4-Cyanophenoxy)hexyl]-3-methylisoxazole]",3.1,
"Cc1cc(CCCCCOc2ccc(C#N)cc2)on1 [Example 7, 5-[5-(4-Cyanophenoxy)pentyl]-3-methylisoxazole]",,activity vs. rhinovirus Type 2 in vitro (rhinovirus Type 2): inactive
"Cc1cc(CCCCCCCOc2ccc(C(=O)OC(C)(C)C)cc2)on1 [Example 8, 5-[7-(4-Tertiary-butyloxycarbonylphenoxy)heptyl]-3-methylisoxazole]",6.2,
"Cc1cc(CCCCCCCCOc2ccc(C#N)cc2)on1 [Example 10, 5-[8-(4-Cyanophenoxy)octyl]-3-methylisoxazole]",,activity vs. rhinovirus Type 2 in vitro (rhinovirus Type 2): inactive
"Cc1cc(CCCCCCCOc2ccc(OC(C)C)cc2)on1 [Example 11, 3-Methyl-5-[7-(4-isopropoxyphenoxy)heptyl]isoxazole]",0.65,
"Cc1cc(CCCCCCCOc2ccc(C(C)C)cc2)on1 [Example 12, 3-Methyl-5-[7-(4-isopropylphenoxy)heptyl]isoxazole]",0.98,
"Cc1cc(CCCCCCCOc2ccc(Cl)cc2)on1 [Example 14, 3-Methyl-5-[7-(4-chlorophenoxy)heptyl]isoxazole]",1.5,MIC (polio-2 virus): 0.4 µg/mL
"Cc1ccc(OCCCCCCCc2cc(C)no2)c(Cl)c1 [Example 15, 5-[7-(2-Chloro-4-methylphenoxy)heptyl]-3-methylisoxazole]",1.2,MIC (polio-2 virus): 0.82 µg/mL
"Cc1cc(CCCCCCCOc2ccc(C(=O)O)cc2)on1 [Example 16, 5-[7-(4-Carboxyphenoxy)heptyl]-3-methylisoxazole]",10,
"Cc1cc(CCCCCOc2ccc(C(=O)O)cc2)on1 [Example 17, 5-[5-(4-Carboxyphenoxy)pentyl]-3-methylisoxazole]",12.5,
"Cc1cc(CCCCCCCOc2cccc(C(=O)O)c2)on1 [Example 19, 5-[7-(3-Carboxyphenoxy)heptyl]-3-methylisoxazole]",,activity vs. rhinovirus Type 2 in vitro (rhinovirus Type 2): inactive
"Cc1cc(CCCCCCCCOc2ccc(C(=O)O)cc2)on1 [Example 20, 5-[8-(4-Carboxyphenoxy)octyl]-3-methylisoxazole]",,activity vs. rhinovirus Type 2 in vitro (rhinovirus Type 2): inactive
"CCOC(=O)c1ccc(OCCCCCCCc2cc(C)no2)cc1 [Example 22, 5-[7-(4-Ethoxycarbonylphenoxy)heptyl]-3-methylisoxazole]",0.025,
"CCOC(=O)c1ccc(OCCCCCc2cc(C)no2)cc1 [Example 23, 5-[5-(4-Ethoxycarbonylphenoxy)pentyl]-3-methylisoxazole]",0.015,

Compound,MIC (rhinovirus Type 2) [µg/mL],other results
"CCOC(=O)c1ccc(OCCCCCCc2cc(C)no2)cc1 [Example 24, 5-[6-(4-Ethoxycarbonylphenoxy)hexyl]-3-methylisoxazole]",0.025,
"CCOC(=O)c1ccc(OCCCCCCCCc2cc(C)no2)cc1 [Example 25, 5-[8-(4-Ethoxycarbonylphenoxy)octyl]-3-methylisoxazole]",0.05,
"CCOC(=O)c1cccc(OCCCCCCCc2cc(C)no2)c1 [Example 26, 5-[7-(3-Ethoxycarbonylphenoxy)heptyl]-3-methylisoxazole]",1.6,
"Cc1cc(CCCCCCCOc2ccc(C(=O)OC(C)C)cc2)on1 [Example 27, 5-[7-(4-Isopropyloxycarbonylphenoxy)heptyl]-3-methylisoxazole]",0.23,
"CCCOC(=O)c1ccc(OCCCCCCCc2cc(C)no2)cc1 [Example 28, 5-[7-(4-Propyloxycarbonylphenoxy)heptyl]-3-methylisoxazole]",0.07,
"COC(=O)c1ccc(OCCCCCCCc2cc(C)no2)cc1 [Example 29, 5-[7-(4-Methoxycarbonylphenoxy)heptyl]-3-methylisoxazole]",3,
"CCOC(=O)c1ccc(OCCCCc2cc(C)no2)cc1 [Example 30, 5-[4-(4-Ethoxycarbonylphenoxy)butyl]-3-methylisoxazole]",3.1,
"CC(=O)c1ccc(OCCCCCCCc2cc(C)no2)cc1 [Example 31, 5-[7-(4-Acetylphenoxy)heptyl]-3-methylisoxazole]",1.6,
"CCC(=O)c1ccc(OCCCCCCCc2cc(C)no2)cc1 [Example 32, 5-[7-(4-Propionylphenoxy)heptyl]-3-methylisoxazole]",1.7,
"Cc1cc(CCCCCCCOc2ccc(C(=O)NN)cc2)on1 [Example 33, 5-[7-(4-Hydrazinocarbonylphenoxy)heptyl]-3-methylisoxazole]",0.64,
"Cc1cc(CCCCCCCOc2ccc(C(N)=O)cc2)on1 [Example 34, 5-[7-(4-Carbamylphenoxy)heptyl]-3-methylisoxazole]",,activity vs. rhinovirus Type 2 in vitro (rhinovirus Type 2): not active
"Cc1cc(CCCCCCCOc2ccc(C(=O)N(C)C)cc2)on1 [Example 35(b), N,N-dimethyl-4-[7-(3-methyl-5-isoxazolyl)heptyloxy]benzamide]",,MIC (polio-2 virus): 2.5 µg/mL
"CCC(=NO)c1ccc(OCCCCCCCc2cc(C)no2)cc1 [Example 36, 5-[7-(4-Propionylphenoxy)heptyl]-3-methylisoxazole oxime]",2.6,MIC (polio-2 virus): 0.2 µg/mL
"Cc1cc(CCCCCCCOc2ccc([N+](=O)[O-])cc2)on1 [Example 37(b), 3-methyl-5-[7-(4-nitrophenoxy)heptyl]isoxazole]",,MIC (polio-2 virus): 1.5 µg/mL
"COc1ccc(OCCCCCCCc2cc(C)no2)c([N+](=O)[O-])c1 [Example 38, 3-Methyl-5-[7-(2-nitro-4-methoxyphenoxy)heptyl]isoxazole]",0.3,MIC (polio-2 virus): 0.17 µg/mL
"Cc1cc(CCCCCCCc2ccc(C#N)cc2)on1 [Example 39(f), 5-[7-(4-Cyanophenyl)heptyl]-3-methylisoxazole]",11.2,
"COc1ccc(OCCCCCc2cc(C)on2)c(Cl)c1 [Example 41, 3-[5-(2-Chloro-4-methoxyphenoxy)pentyl]-5-methylisoxazole]",0.7,MIC (polio-2 virus): 1.4 µg/mL
